Experimental data reported in patent US20220184147A1, “BACTERIAL ENZYMATIC CONVERSION OF ANTHRACYCLINE CHEMOTHERAPEUTICS TO REDUCE TOXICITY AND PROMOTE DIVERSITY AMONG THE INTESTINAL MICROBIOTA” (Northwestem University, priority 2019, published 2022).

What was measured:
K. pneumoniae = assay: Modified resting cell assay with gentamicin; type: cell-based, Klebsiella pneumoniae; conditions: 10 or 50 μm gentamicin, anaerobic, 37° C., 24 h, controls
Procedure: FIG. 12A and FIG. 12B. Background gentamicin in culture media “fixes” K. pneumoniae to retain its biotransformation function despite thwarting cell growth. FIG. 12A: K. pneumoniae were first grown anaerobically at 37° C. in media in the presence of doxorubicin for 24 h (i.e., so initial biotransformation took place). Cultures were centrifugated into pellets, which were washed with buffer solution and resuspended in new media containing 100 μm doxorubicin and 0, 10, or 50 μm gentamicin. Inoculum was transferred to positive controls (i.e., with doxorubicin and same gentamicin treatment) and negative controls (i.e., contained doxorubicin, but no gentamicin). All samples were incubated anaerobically at 37° C. for 24 h and bacterial growth and final doxorubicin concentration (i.e., barplot) were determined. […] The two tubes on the far right are control growth media and doxorubicin-containing growth media (i.e., red color intensity corresponds to doxorubicin concentration in solution).
In a modified resting cell assay, we have shown that the biotransformation function can be harnessed without dependency on cell division. (See FIGS. 12A and 12B). Thus, it may be possible to “fix” K. pneumoniae in a form that enzymatically transforms Dox without presenting risk for in vivo colonization/growth. […]

C. innocuum = assay: Growth of Dox-sensitive strain in 50% spent media of resistant strains; type: cell-based, Clostridium innocuum
Procedure: (§1) We previously observed that a Dox concentration as low as 10 μM can inhibit the growth of C. innocuum and Lactobacillus. (See FIGS. 7 and 8, respectively).

Lactobacillus [1] = assay: as above; type: cell-based, Lactobacillus spp.
Procedure: as §1

Lactobacillus [2] = assay: Sensitivity of monoculture growth to Dox at various concentrations; type: cell-based, Lactobacillus spp.
Text: (§2) The impacts of doxorubicin on a model community of gut bacteria was investigated in vitro in anaerobic batch culture. The synthetic community was composed of specific members predicted by genomic analysis to be sensitive to the therapeutic (i.e., Clostridium innocuum, Lactobacillus sp.), resistant via putative biotransformation (i.e., Escherichia coli, Klebsiella pneumoniae), or resistant via putative efflux (i.e., Enterococcus faecalis). Bacterial growth was monitored in monocultures by measuring OD600 and standard plate counts, and in mixed cultures by strain-targeted qPCR. Doxorubicin concentration was detected via absorbance assay.
(§3) The effects of Dox on gut-associated bacteria then were investigated in vitro in monoculture and in a synthetic community. […] Bacteria were identified and quantified after culture and treatment using qPCR.
(§4) (See FIGS. 4-8). […] (See FIGS. 4 and 5, respectively).
(§5) (See FIGS. 7 and 8, respectively).

Klebsiella pneumoniae [3] = assay: Bacterial transformation of Dox, spectrophotometric assay of Dox concentration in culture / spent media
Text: (§6) A spectrophotometric assay to measure the concentration of active, unmodified, non-transformed doxorubicin was adopted.
(§7) A spectrophotometric assay to measure the concentration of doxorubicin was adopted. […] Our spectrophotometric assays measure the concentration of active, unmodified, non-transformed doxorubicin (Dox) via absorption at λ480 versus concentration of Dox μM.
(§8) We next tested the sensitivity or resistance of Escherichia coli, Klebsiella pneumonia, Enterococcus faecalis, Clostridium innocuum or Lactobacillus spp. to Dox at various concentrations. (See FIGS. 4-8). […] (See FIGS. 4 and 5, respectively).

Escherichia coli [4] = assay: as above
Text: as §6, §7, §8

[5] = tested on: synthetic community of C. innocuum, E. coli, E. faecalis, and K. pneumoniae; assay: Mixed-batch culture of synthetic community treated with Dox in second generation; type: cell-based; conditions: Dox 100 μM added in second generation
Procedure: We next performed a mixed-batch culture experiment. (See FIGS. 10A and 10B). We prepared a synthetic community by combining cultures of C. innocuum, E. coli, E. faecalis, and K. pneumoniae. We cultured the synthetic community and allowed community formation in a first generation. Subsequently, we added Dox at a concentration of 100 μM and monitored the growth of the members of the synthetic community after treatment/disturbance in a second generation. We then cultured the synthetic community though resiliency in a third generation.
(See FIGS. 10B, middle panel).

Clostridium innocuum = assay: Sensitivity of monoculture growth to Dox at various concentrations; type: cell-based; conditions: C. innocuum
Text: as §2, §3, §4, §5

Klebsiella pneumoniae [6] = assay: Sensitivity or resistance of monoculture growth to Dox; type: cell-based; conditions: K. pneumoniae
Text: as §2, §3, §4

Escherichia coli [7] = assay: as above; type: cell-based; conditions: E. coli
Text: as §2, §3, §4

Enterococcus faecalis [8] = assay: as above; type: cell-based; conditions: E. faecalis
Text: as §2, §3, §4

[9] = tested on: mixed-microbial communities of C. innocuum, Lactobacillus sp., E. faecalis, E. coli, and K. pneumoniae; assay: Mixed-microbial communities C1-C5 in continuous anaerobic batch culture exposed to Dox in generation 2; type: cell-based
Procedure: FIG. 11A, FIG. 11B, FIG. 11C, FIG. 11D, and FIG. 11E. […] C1 began with even content of model strains of C innocuum^S, Lactobacillus^S sp., E. faecalisR, E. coli^R*, and K. pneumoniae^R*. C2 included less E. faecalis^R. C3 included less E. coli^R* . C4 included less K. pneumoniae^R*, and C5 included less E. coli^R* and K. pneumoniae^R*. The bacterial communities were grown in continuous batch culture and exposed to different concentrations Dox in generation 2.
The impacts of doxorubicin concentration and microbial community membership (and associated function) on the reduction of bioactive drug and associated microbial community resiliency were investigated in vitro in continuous anaerobic batch culture. Optical density measurements coupled with 16S rRNA gene amplicon sequencing analysis were used to estimate relative bacterial growth and a spectrophotometric assay was used to measure doxorubicin concentration. […] C1 began with even content of model strains of C. innocuum^S, Lactobacillus^S sp., E. faecalis^R, E. coli^R*, and K. pneumoniae^R*. C2 included less E. faecalis^R. C3 included less E. coli^R*. C4 included less K. pneumoniae^R*, and C5 included less E. coli^R* and K. pneumoniae^R*. The bacterial communities were grown in continuous batch culture and exposed to different concentrations Dox in generation 2.
C1, C2, and C3, may have been enhanced in communities with greater bacterial diversity. (See FIGS. 11A, 11B, and 11C, and compare C1 to C2 and C3, at least for the medium concentration). […] (See FIG. 11D, C4). […] (See FIG. 11E, C5). […] (See FIGS. 11A, 11B, and 11C, C1, C2, and C3, generation 3). […] Thus, microbial community membership (and associated function) impacted the rate of doxorubicin transformation, which, in turn, may confer protective effects on drug-sensitive members in gut-microbial communities.

Enterococcus faecalis [10] = assay: Bacterial transformation of Dox, spectrophotometric assay of Dox concentration in culture / spent media
Text: as §6, §7

[11] = spent media of E. coli and K. pneumoniae, Dox 4.1±2.5 μM and 4.4±0.9
[12] = spent media of E. faecalis, Dox 48.4±0.8 μM

gentamicin
Effect on K. pneumoniae growth (K. pneumoniae): stalled K. pneumoniae growth

COc1cccc2c1C(=O)c1c(O)c3c(c(O)c1C2=O)C[C@@](O)(C(=O)CO)C[C@@H]3O[C@H]1C[C@H](N)[C@H](O)[C@H](C)O1 [Dox, doxorubicin]
Growth in 50% spent media (C. innocuum; [11]): able to grow | Growth in 50% spent media (C. innocuum; [12]): unable to grow | Growth in 50% spent media (Lactobacillus [1]; [11]): able to grow | Growth in 50% spent media (Lactobacillus [1]; [12]): unable to grow | Growth after 25 hours (Lactobacillus [2]; Dox 100 μM): did not observe any growth | Dox concentration at which delayed growth was observed (Lactobacillus [2]; monoculture): ≤ 10 µM | Sensitivity to Dox (Lactobacillus [2]; monoculture): highly sensitive | Change of Dox concentration in culture (Klebsiella pneumoniae [3]; K. pneumoniae culture, absorption at λ480): reduced Dox concentration in culture | Dox concentration in the 50% spent media (Klebsiella pneumoniae [3]; K. pneumoniae grown with initial 250 μM Dox): 4.4±0.9 | Change of Dox concentration in culture (Escherichia coli [4]; E. coli culture, absorption at λ480): reduced Dox concentration in culture | Dox concentration in the 50% spent media (Escherichia coli [4]; E. coli grown with initial 250 μM Dox): 4.1 ± 2.5 µM | Growth of Dox-sensitive C. innocuum in synthetic community [5]: grew only following doxorubicin transformation | Growth after 25 hours (Clostridium innocuum; Dox 100 μM): did not observe any growth | Dox concentration at which delayed growth was observed (Clostridium innocuum; monoculture): ≤ 10 µM | Sensitivity to Dox (Clostridium innocuum; monoculture): highly sensitive | Resistance to Dox (Klebsiella pneumoniae [6]): resistant | Resistance to Dox (Escherichia coli [7]): resistant | Resistance to Dox (Enterococcus faecalis [8]): resistant to Dox | Transformation of Dox by bacterial communities ([9]; communities containing E. coli and lacking K. pneumoniae (C4)): at a slower rate | Transformation of doxorubicin by bacterial communities ([9]; communities containing E. coli or K. pneumoniae): rapid transformation | Transformation of Dox by bacterial communities ([9]; communities without either K. pneumoniae or E. coli (C5)): not able to enzymatically transform Dox | C. innocuum growth in mixed communities ([9]; generation 2, medium and high concentrations of doxorubicin): not detected in all cultures | Change of Dox concentration in culture (Enterococcus faecalis [10]; E. faecalis culture, absorption at λ480): did not reduce the Dox concentration in culture | Dox concentration in the 50% spent media (Enterococcus faecalis [10]; E. faecalis grown with initial 100 μM Dox): 48.4±0.8
